Reference: patent US20260184663A1, “INDENE COMPOUNDS, PHARMACEUTICAL COMPOSITIONS THEREOF, AND THEIR THERAPEUTIC APPLICATIONS” (NucMito Pharmaceuticals co. Ltd., priority 2022, published 2026)
Like-named read-outs stand apart in the source and are kept apart here.

Experiments:
Format in all cases: cell-based
[1] = tested on: A431 (epidermoid carcinoma); assay: Antiproliferative activity (CCK-8 cell viability), A431; conditions: Homo sapiens, 72 h; for inhibition at 3.3 µM: A-431, Compound concentration: 3.3 μM; for inhibition at 10 µM: A-431, Compound concentration: 10 μM; for inhibition at 30 µM: A-431, Compound concentration: 30 μM
Procedure, shortened: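 Cell viability of compound-treated A431 cells was measured with a Cell Counting Kit-8. Each well received 10 μL of CCK-8 after 72 h of compound exposure, followed by 4 h incubation at 37° C. and a 450 nm plate-reader measurement. Percent viability was calculated relative to DMSO controls across replicates.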

[2] = tested on: MDA-MB-231 (breast cancer); assay: Antiproliferative activity (CCK-8 cell viability), MDA-MB-231; conditions: Homo sapiens, 72 h, read-out: Antiproliferative activity in cancerous cells, MDA-MB-231 (inhibition of cell growth); for inhibition at 3.3 µM: Compound concentration: 3.3 μM; for inhibition at 10 µM: Compound concentration: 10 μM; for inhibition at 30 µM: Compound concentration: 30 μM
Procedure, shortened: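 In this CCK-8 viability assay, MDA-MB-231 cells maintained in Dulbecco's modified Eagle's medium containing 10% fetal bovine serum were placed in 96-well plates (2,000-5,000 cells/well) and treated with compound for 72 h at 37° C. A 4 h incubation with 10 μL CCK-8 followed, plates were read at 450 nm, and viability was expressed against DMSO vehicle wells across replicates.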

[3] = tested on: SW480 (colon cancer); assay: Antiproliferative activity (CCK-8 cell viability), SW480; conditions: Homo sapiens, 72 h; for inhibition at 3.3 µM: Compound concentration: 3.3 μM; for inhibition at 10 µM: Compound concentration: 10 μM; for inhibition at 30 µM: Compound concentration: 30 μM
Procedure, shortened: (§1)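 Cells were seeded at 2,000-5,000/well (HeLa in MEM, HepG2 and SW480 in DMEM, A549 in F-12K, all with 10% FBS) and treated with compound at 3.3, 10 or 30 μM for 72 h at 37° C. CCK-8 was added for 4 h, absorbance was read at 450 nm, and viability was expressed relative to DMSO-treated wells.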

[4] = tested on: HeLa (cervical cancer); assay: Antiproliferative activity (CCK-8 cell viability), HeLa; conditions: Homo sapiens, 72 h, read-out: Antiproliferative activity in cancerous cells, HELA (inhibition of cell growth); for inhibition at 3.3 µM: Compound concentration: 3.3 μM; for inhibition at 10 µM: Compound concentration: 10 μM; for inhibition at 30 µM: Compound concentration: 30 μM
Procedure, shortened: as §1

[5] = tested on: B16F10 (malignant melanoma); assay: Antiproliferative activity (CCK-8 cell viability), B16F10; conditions: Mus musculus, 72 h, read-out: Antiproliferative activity in cancerous cells, B16F10 (inhibition of cell growth); for inhibition at 3.3 µM: B16-F10, Compound concentration: 3.3 μM; for inhibition at 10 µM: B16-F10, Compound concentration: 10 μM; for inhibition at 30 µM: B16-F10, Compound concentration: 30 μM
Procedure, shortened: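 Attached B16F10 cells in 96-well plates were incubated with compound at 37° C for 72 h, followed by 10 μL CCK-8 reagent per well and a further 4 h incubation. A multi-well plate reader measured absorbance at 450 nm. Percent viability across replicates was calculated against DMSO vehicle-treated cells.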

[6] = tested on: HepG2 (liver cancer); assay: Antiproliferative activity (CCK-8 cell viability), HepG2; conditions: Homo sapiens, 72 h, read-out: Antiproliferative activity in cancerous cells, HepG2 (inhibition of cell growth); for inhibition at 3.3 µM: Compound concentration: 3.3 μM; for inhibition at 10 µM: Compound concentration: 10 μM; for inhibition at 30 µM: Compound concentration: 30 μM
Procedure, shortened: as §1

[7] = tested on: A549 (lung adenocarcinoma); assay: Antiproliferative activity (CCK-8 cell viability), A549; conditions: Homo sapiens, 72 h; for inhibition at 3.3 µM: Compound concentration: 3.3 μM; for inhibition at 10 µM: Compound concentration: 10 μM; for inhibition at 30 µM: Compound concentration: 30 μM
Procedure, shortened: as §1

[8] = read-out: Antiproliferative activity in cancerous cells, A431 (inhibition of cell growth)
[9] = read-out: Antiproliferative activity in cancerous cells, SW480 (inhibition of cell growth)
[10] = read-out: Antiproliferative activity in cancerous cells, A549 (inhibition of cell growth)
[11] = read-out: Antiproliferative activity in cancerous cells, A431
[12] = read-out: Antiproliferative activity in cancerous cells, SW480

| SMILES | inhibition at 3.3 µM [1, 8] [%] | inhibition at 10 µM [1, 8] [%] | inhibition at 30 µM [1, 8] [%] | inhibition at 3.3 µM [2] [%] | inhibition at 10 µM [2] [%] | inhibition at 30 µM [2] [%] | inhibition at 3.3 µM [3, 9] [%] | inhibition at 10 µM [3, 9] [%] | inhibition at 30 µM [3, 9] [%] | inhibition at 3.3 µM [4] [%] | inhibition at 10 µM [4] [%] | inhibition at 30 µM [4] [%] | inhibition at 3.3 µM [5] [%] | inhibition at 10 µM [5] [%] | inhibition at 30 µM [5] [%] | inhibition at 3.3 µM [6] [%] | inhibition at 10 µM [6] [%] | inhibition at 30 µM [6] [%] | inhibition at 3.3 µM [7, 10] [%] | inhibition at 10 µM [7, 10] [%] | further results |
| --- | --- | --- | --- | --- | --- | --- | --- | --- | --- | --- | --- | --- | --- | --- | --- | --- | --- | --- | --- | --- | --- |
| CC1=C(CC(=O)O)c2cc(F)ccc2/C1=C\c1cccc(OC2CCC(F)(F)CC2)c1 [C206, (Z)-2-(1-(3-((4,4-Difluorocyclohexyl)oxy)benzylidene)-5-fluoro-2-methyl-1H-inden-3-yl)acetic acid] | 30 to 50 | 30 to 50 | ≥ 50 | ≥ 50 | ≥ 50 | ≥ 50 | 30 to 50 | ≥ 50 | ≥ 50 | < 30 | ≥ 50 | ≥ 50 | ≥ 50 | ≥ 50 | ≥ 50 | < 30 | ≥ 50 | ≥ 50 | < 30 | ≥ 50 | inhibition at 30 µM [7, 10]: ≥ 50% |
| CC1=C(CC(=O)O)c2cc(F)ccc2/C1=C\c1cccc(CNc2ccccc2)c1 [B14, (Z)-2-(5-Fluoro-2-methyl-1-(3-((phenylamino)methyl)benzylidene)-1H-inden-3-yl)acetic acid] | < 30 | < 30 | – | < 30 | 30 to 50 | – | < 30 | < 30 | – | 30 to 50 | 30 to 50 | – | < 30 | 30 to 50 | – | < 30 | < 30 | – | ≥ 50 | ≥ 50 | inhibition at 30 µM [1, 11]: 30 to 50%; inhibition at 30 µM [3, 12]: 30 to 50%; inhibition at 30 µM ([7]; read-out: Antiproliferative activity in cancerous cells, A549): 30 to 50% |
| CC1=C(CC(=O)O)c2cc(F)ccc2/C1=C\c1ccc(OCCc2ccccc2)cc1 [B30, (Z)-2-(5-Fluoro-2-methyl-1-(4-phenethoxybenzylidene)-1H-inden-3-yl)acetic acid] | ≥ 50 | ≥ 50 | – | < 30 | ≥ 50 | – | < 30 | ≥ 50 | – | < 30 | ≥ 50 | – | < 30 | < 30 | – | < 30 | ≥ 50 | – | 30 to 50 | ≥ 50 | – |
| CC1=C(CC(=O)O)c2cc(F)ccc2/C1=C\c1cccc(Oc2cccc(Cl)c2)c1 [C101, (Z)-2-(1-(3-(3-Chlorophenoxy)benzylidene)-5-fluoro-2-methyl-1H-inden-3-yl)acetic acid] | 30 to 50 | ≥ 50 | – | < 30 | < 30 | – | < 30 | 30 to 50 | – | < 30 | 30 to 50 | – | ≥ 50 | ≥ 50 | – | < 30 | ≥ 50 | – | < 30 | < 30 | – |
| CC1=C(CC(=O)O)c2cc(F)c(F)cc2/C1=C\c1ccc(COc2ccc(F)cc2)cc1 [B53, (Z)-2-(5,6-Difluoro-1-(4-((4-fluorophenoxy)methyl)benzylidene)-2-methyl-1H-inden-3-yl)acetic acid] | 30 to 50 | 30 to 50 | – | ≥ 50 | ≥ 50 | – | 30 to 50 | 30 to 50 | – | < 30 | < 30 | – | 30 to 50 | ≥ 50 | – | < 30 | < 30 | – | < 30 | 30 to 50 | inhibition at 30 µM [1, 11]: 30 to 50%; inhibition at 30 µM [3, 12]: 30 to 50% |
| CC1=C(CC(=O)O)c2cc(Cl)c(Cl)cc2/C1=C\c1ccc(Oc2ccc(F)cc2)cc1 [C83, (Z)-2-(5,6-Dichloro-1-(4-(4-fluorophenoxy)benzylidene)-2-methyl-1H-inden-3-yl)acetic acid] | ≥ 50 | ≥ 50 | – | ≥ 50 | ≥ 50 | – | ≥ 50 | ≥ 50 | – | ≥ 50 | ≥ 50 | – | ≥ 50 | ≥ 50 | – | < 30 | ≥ 50 | – | ≥ 50 | ≥ 50 | – |
| COc1ccc(C(=O)c2ccc(/C=C3/C(C)=C(CC(=O)O)c4cc(F)ccc43)cc2)cc1 [C306, (Z)-2-(5-Fluoro-1-(4-(4-methoxybenzoyl)benzylidene)-2-methyl-1H-inden-3-yl)acetic acid] | ≥ 50 | ≥ 50 | ≥ 50 | ≥ 50 | ≥ 50 | ≥ 50 | 30 to 50 | 30 to 50 | ≥ 50 | 30 to 50 | ≥ 50 | ≥ 50 | < 30 | ≥ 50 | ≥ 50 | 30 to 50 | ≥ 50 | ≥ 50 | < 30 | 30 to 50 | inhibition at 30 µM [7, 10]: 30 to 50% |
| CC1=C(CC(=O)O)c2cc(F)ccc2/C1=C\c1ccc(Cc2cc3ccccc3s2)cc1 [C312, (Z)-2-(1-(4-(Benzo[b]thiophen-2-ylmethyl)benzylidene)-5-fluoro-2-methyl-1H-inden-3-yl)acetic acid] | ≥ 50 | ≥ 50 | ≥ 50 | 30 to 50 | ≥ 50 | ≥ 50 | ≥ 50 | ≥ 50 | ≥ 50 | ≥ 50 | ≥ 50 | ≥ 50 | ≥ 50 | ≥ 50 | ≥ 50 | ≥ 50 | ≥ 50 | ≥ 50 | < 30 | ≥ 50 | inhibition at 30 µM [7, 10]: ≥ 50% |
